PMC12456999, “Sulfonyl Homoserine Lactones Are Tunable Probes to Inhibit the Quorum Sensing Receptor RhlR and Reduce Swarming Motility in Pseudomonas aeruginosa” (ACS Infectious Diseases, 2025)
Read-outs that look alike come from different tables or passages of the source. Marks after values point to notes of the source that are not given here.

Columns and labels:
[1] = biological target: T1, RhlR (Pseudomonas aeruginosa, UniProt P54292); settings: P. aeruginosa RhlR reporter systems; reference number not given; cited from earlier work
T1 construct: expressed in transfected cells; host or cells: E. coli JLD271 (K-12 ΔlacX74 sdiA271::Cam) carrying pJN105-R2 (RhlR expression) and pSC11-rhlI (rhlI'-lacZ reporter)

[2] = biological target: T1, RhlR; test: P. aeruginosa RhlR reporter agonism assay; type: cell-based
Description: (§1) RhlR activity in E. coli strain JLD271 (ΔsdiA) was measured via a β-galactosidase reporter (rhI-lacZ) using the Promega Beta-Glo Assay System as previously described. RhlR activity in P. aeruginosa PA14 (ΔrhlIΔlasI) was measured via a GFP reporter (rhlA-gfp). […] See Supporting Information for both reporter protocols.
(§2) Supporting Information — Aguirre-Figueroa et al.
P. aeruginosa RhlR reporter assay. RhlR activity in P. aeruginosa PA14 ΔrhlIΔlasI was measured via a GFP reporter. Briefly, a single colony of P. aeruginosa strain PA14 ΔrhlIΔlasI harboring the transcriptional fusion reporter pPROBE-GT rhlA-GFP (Table S1) was grown in LB medium with 40 μg/mL gentamicin overnight (~20 h). The culture was diluted 1:100 in fresh LB medium, without antibiotic, to an OD600 = 0.25 (0.22–0.30) (~1 h). Aliquots (2 μL) of compound DMSO stock solution or serial dilution were added to the inner wells (i.e., non-periphery rows) of a black, clear bottom 96-well plate. To 12 inner wells, DMSO alone (vehicle) was added to serve as controls (negative and positive). For the six negative control wells (no BHL), 198 μL of bacterial culture plus OdDHL (to achieve 10 μM) were added. […] After incubation, the OD600 and GFP production (excitation at 500 nm, emission at 540 nm) were read for each well using a plate reader. […]

[3] = biological target: T1, RhlR; test: E. coli (JLD271) RhlR reporter agonism assay (no BHL added); type: cell-based; settings: for Emax: read-out: Max Activation (RhlR), E. coli JLD271 RhlR reporter, no BHL added, high concentrations
Description: (§3) To start, the sulfonyl HLs were evaluated for their ability to antagonize RhlR using a previously described E. coli strain (JLD271) harboring a RhlR expression plasmid and a rhlI reporter plasmid. This E. coli reporter produces RhlR, and protein activity in the presence of an added small molecule can be measured via the production of β-galactosidase as quantified via luminescence (see Methods). Compounds were screened in competition against RhlR’s native ligand, BHL (at its EC50 value in this strain, 10 μM), over a range of concentrations to generate antagonism dose–response curves (see Supporting Information) and calculate IC50 values (listed in Table ). A small set of compounds was also screened for RhlR agonism in the E. coli reporter; the agonism assay format was identical to the antagonism assay, except no BHL was added.
as §1, §2
(§4) E. coli and P. aeruginosa RhlR reporter assay protocols.
E. coli RhlR reporter assay. RhlR activity in E. coli strain JLD271 (ΔsdiA) was measured via a β-galactosidase reporter using the Promega Beta-Glo® Assay System as previously described.10 A schematic of the reporter plasmids and assay protocol is shown in Scheme S1. Briefly, a single colony of E. coli JLD271 harboring the RhlR expression plasmid pJN105-R and the rhlI-lacZ transcriptional fusion reporter pSC11-R (Table S1) was grown in LB medium with 100 μg/mL ampicillin and 10 μg/mL gentamicin overnight (~16 h). The culture was diluted 1:10 in fresh LB medium and grown to an OD600 = 0.25 (0.23–0.28) (~0.5 h). Arabinose was added to a final concentration of 4 mg/mL to induce the expression of pJN105-R. Aliquots (2 μL) of compound DMSO stock solution or serial dilution were added to the inner wells (i.e., non-periphery rows) of a 96-well microtiter plate. To six inner wells, DMSO alone (vehicle) was added as a negative control. For agonism assays, BHL was added to six inner wells as a positive control (to achieve 1 mM). For antagonism assays, BHL was added to six inner wells as a positive control and to all of the other sample wells except for the vehicle control wells (to achieve 10 μM ). […]
After the incubation period, the OD600 of each well was measured using a plate reader. […] After incubation, luminescence of each well was measured using a plate reader. To determine levels of RhlR activity, raw luminescence was divided by OD600 to correct for growth variation and then normalized to the negative (0%) and positive (100%) control wells. […]

[4] = biological target: T1, RhlR; test: E. coli (JLD271) RhlR reporter antagonism assay, in competition with BHL; type: cell-based; settings: for activity profile in RhlR: E. coli RhlR reporter dose-response curves; for max. RhlR inhibition (%): E. coli RhlR reporter, BHL at 10 μM set to 0%, media control set to 100%; for IC50: IC50, E. coli JLD271 RhlR reporter, against 10 μM BHL
Description: as §3, §1, §2, §4
E. coli RhlR reporter assay. RhlR activity in E. coli strain JLD271 (ΔsdiA) was measured via a β-galactosidase reporter using the Promega Beta-Glo® Assay System as previously described.10 A schematic of the reporter plasmids and assay protocol is shown in Scheme S1. Briefly, a single colony of E. coli JLD271 harboring the RhlR expression plasmid pJN105-R and the rhlI-lacZ transcriptional fusion reporter pSC11-R (Table S1) was grown in LB medium with 100 μg/mL ampicillin and 10 μg/mL gentamicin overnight (~16 h). The culture was diluted 1:10 in fresh LB medium and grown to an OD600 = 0.25 (0.23–0.28) (~0.5 h). Arabinose was added to a final concentration of 4 mg/mL to induce the expression of pJN105-R. Aliquots (2 μL) of compound DMSO stock solution or serial dilution were added to the inner wells (i.e., non-periphery rows) of a 96-well microtiter plate. To six inner wells, DMSO alone (vehicle) was added as a negative control. For agonism assays, BHL was added to six inner wells as a positive control (to achieve 1 mM). For antagonism assays, BHL was added to six inner wells as a positive control and to all of the other sample wells except for the vehicle control wells (to achieve 10 μM ). Subculture (198 μL) was then dispensed into each inner well. To the outer (periphery) wells, 200 μL of water were added to maintain humidity during incubation. Plates were then incubated for 4 h (shaking) at 37 °C.
Scheme S1. Schematic of E. coli reporter plasmids and assay. (A) Representation of plasmids used in the heterologous reporter system. (B) General reporter assay workflow. BioRender used in […]
After the incubation period, the OD600 of each well was measured using a plate reader. Cell dilution plates were prepared by transferring 10 μL from the incubated culture plate wells to a fresh 96-well plate and adding 90 μL of 18 MΩ water to each well. Next, 10 μL aliquots of diluted Beta-Glo® reagent (1:2 with 18 MΩ water) were added to each well of a white 384-well microtiter plate, followed by 10 μL of culture from each well of the dilution plate. The 384-well plate was incubated (without shaking; i.e., static) for 30 min at 30 °C. After incubation, luminescence of each well was measured using a plate reader. To determine levels of RhlR activity, raw luminescence was divided by OD600 to correct for growth variation and then normalized to the negative (0%) and positive (100%) control wells.
Dose-response reporter assay data for compounds in the E. coli RhlR reporter.
Dose-response curves for RhlR antagonism by compounds against 10 μM BHL using the E. coli JLD271 RhlR reporter are provided below. Compound names are indicated on the x-axis of each plot.
All assays performed in triplicate as at least three separate biological replicates. […]

[5] = tested on: bacterial growth; test: Effect on bacterial growth (OD600 over time); type: cell-based; settings: at >2 mM concentrations
Description: All new compounds were fully characterized for purity and identity (see Supporting Information). […] The remaining compounds had no effect on growth over the concentration range tested. All compounds were tested in bacteriological assays in triplicate and in at least three separate trials using unique cultures. IC50 and EC50 values in reporter assays were calculated using GraphPad Prism software (version 9.0) with a variable slope sigmoidal curve fit.

[6] = tested on: other LuxR homologues; set-up: method as in Kim et al.; settings: ref Kim et al.; cited from earlier work

T1 sequence (P54292 whole entry): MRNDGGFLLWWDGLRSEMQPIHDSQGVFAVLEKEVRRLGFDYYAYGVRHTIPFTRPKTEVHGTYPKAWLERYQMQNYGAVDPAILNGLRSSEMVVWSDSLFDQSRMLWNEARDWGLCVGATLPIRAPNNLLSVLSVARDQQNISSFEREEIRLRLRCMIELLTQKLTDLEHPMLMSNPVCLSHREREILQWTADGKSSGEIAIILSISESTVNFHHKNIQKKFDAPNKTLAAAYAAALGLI

SMILES | max. RhlR inhibition (%) [4] | IC50 [4] | effect on bacterial growth [5] | also measured
CCCC(=O)N[C@H]1CCOC1=O [BHL, N-butanoyl L-homoserine lactone, reference compound] | – | – | – | EC50 [1]: 5 to 10 µM; EC50 [2]: 4.47 µM; EC50 [3]: 10 µM; IC50 [3]: 8.73 µM
O=C1OCC[C@@H]1NS(=O)(=O)Cc1ccc(C(F)(F)F)cc1 [Compound 15, 4-CF3 BnSHL] | 35 ^f % | – | – | activity profile in RhlR [4]: partial agonist; Emax [3]: 38%
O=C1OCC[C@@H]1NS(=O)(=O)c1ccccc1Cl [Compound 27, 2-chloro BSHL] | 93% | 545 µM | modest effect on bacterial growth | –
O=C1OCC[C@@H]1NS(=O)(=O)Cc1cccc(Cl)c1 [Compound 33, 3-Cl BnSHL] | 99% | 125 µM | modest effect on bacterial growth | potency gain ([4]; 33 vs 16, 43 vs 24, 86 vs 45, E. coli RhlR reporter IC50): ≤ 40 fold
O=C1OCC[C@@H]1NS(=O)(=O)c1ccc(Br)cc1 [Compound 35, 4-bromo BSHL] | 99% | 166 µM | modest effect on bacterial growth | –
O=C1OCC[C@@H]1NS(=O)(=O)c1cc(Cl)cc(Cl)c1 [Compound 50, 3,5-Cl-BSHL] | – | – | – | activity profile in RhlR [4]: partial agonist behavior; Emax [3]: 30%
O=C1OCC[C@@H]1NS(=O)(=O)c1ccccc1 [Compound 57] | 93% | 715 µM | – | antagonism of other LuxR homologues [6]: ~50%
O=C1OCC[C@@H]1NS(=O)(=O)c1ccc(F)c(Cl)c1 [Compound 64, 3-Cl, 4-F BSHL] | 90% | 31.3 µM | modest effect on bacterial growth | fold higher potency relative to 3,4-di-Cl BSHL (43) ([4]; E. coli RhlR reporter IC50): 2 fold
